Numbers after ± are expanded uncertainties.
Conditions: Liquid, Vibrating tube method

C=CCCC [1-pentene]
Conditions	mass density [kg/m3]
283.48 K, 100 kPa	650.3 ± 2.1
283.48 K, 500 kPa	650.8 ± 2.1
283.48 K, 1000 kPa	651.6 ± 2.1
283.48 K, 3000 kPa	654 ± 2.1
283.48 K, 70000 kPa	708.8 ± 2.3
283.48 K, 80000 kPa	714.8 ± 2.4
283.49 K, 5000 kPa	656.3 ± 2.1
283.49 K, 10000 kPa	661.8 ± 2.1
283.49 K, 15000 kPa	666.9 ± 2.1
283.49 K, 20000 kPa	671.7 ± 2.1
283.49 K, 25000 kPa	676.2 ± 2.1
283.49 K, 30000 kPa	680.4 ± 2.2
283.49 K, 35000 kPa	684.5 ± 2.2
283.49 K, 40000 kPa	688.4 ± 2.2
283.49 K, 45000 kPa	692.1 ± 2.2
283.49 K, 50000 kPa	695.7 ± 2.3
283.49 K, 55000 kPa	699.1 ± 2.3
283.49 K, 60000 kPa	702.5 ± 2.3
283.49 K, 90000 kPa	720.4 ± 2.4
283.49 K, 100000 kPa	725.7 ± 2.5
293.42 K, 100 kPa	640.1 ± 2.1
293.42 K, 500 kPa	640.7 ± 2.1
293.42 K, 1000 kPa	641.4 ± 2.1
293.42 K, 3000 kPa	644 ± 2.1
293.42 K, 5000 kPa	646.5 ± 2.1
293.42 K, 10000 kPa	652.4 ± 2.1
293.42 K, 40000 kPa	680.8 ± 2.2
293.42 K, 55000 kPa	692 ± 2.3
293.42 K, 60000 kPa	695.5 ± 2.3
293.42 K, 70000 kPa	702.2 ± 2.4
293.42 K, 80000 kPa	708.3 ± 2.4
293.42 K, 90000 kPa	714.1 ± 2.5
293.42 K, 100000 kPa	719.6 ± 2.5
293.43 K, 15000 kPa	657.9 ± 2.1
293.43 K, 20000 kPa	663 ± 2.1
293.43 K, 25000 kPa	667.8 ± 2.1
293.43 K, 35000 kPa	676.7 ± 2.2
293.43 K, 45000 kPa	684.7 ± 2.2
293.43 K, 50000 kPa	688.4 ± 2.3
293.44 K, 30000 kPa	672.3 ± 2.2
303.33 K, 100 kPa	629.8 ± 2.1
303.33 K, 1000 kPa	631.1 ± 2.1
303.33 K, 3000 kPa	634 ± 2.1
303.33 K, 35000 kPa	668.9 ± 2.2
303.34 K, 5000 kPa	636.7 ± 2.1
303.34 K, 10000 kPa	643.1 ± 2.1
303.34 K, 15000 kPa	649 ± 2.1
303.34 K, 20000 kPa	654.5 ± 2.1
303.34 K, 25000 kPa	659.6 ± 2.1
303.34 K, 30000 kPa	664.4 ± 2.2
303.34 K, 40000 kPa	673.2 ± 2.2
303.34 K, 45000 kPa	677.3 ± 2.2
303.34 K, 50000 kPa	681.2 ± 2.3
303.34 K, 80000 kPa	702 ± 2.4
303.34 K, 90000 kPa	707.9 ± 2.5
303.35 K, 55000 kPa	685 ± 2.3
303.35 K, 60000 kPa	688.6 ± 2.3
303.35 K, 70000 kPa	695.6 ± 2.4
303.35 K, 100000 kPa	713.6 ± 2.5
313.27 K, 500 kPa	620.4 ± 2.1
313.27 K, 3000 kPa	624.5 ± 2.1
313.27 K, 5000 kPa	627.5 ± 2.1
313.27 K, 10000 kPa	634.4 ± 2.1
313.28 K, 1000 kPa	621.3 ± 2.1
313.28 K, 15000 kPa	640.8 ± 2.1
313.28 K, 20000 kPa	646.7 ± 2.1
313.28 K, 25000 kPa	652.1 ± 2.1
313.28 K, 30000 kPa	657.2 ± 2.2
313.28 K, 45000 kPa	670.8 ± 2.2
313.28 K, 50000 kPa	674.9 ± 2.3
313.28 K, 70000 kPa	689.9 ± 2.4
313.29 K, 35000 kPa	661.9 ± 2.2
313.29 K, 40000 kPa	666.6 ± 2.2
313.29 K, 55000 kPa	678.8 ± 2.3
313.29 K, 60000 kPa	682.6 ± 2.3
313.29 K, 80000 kPa	696.4 ± 2.4
313.29 K, 90000 kPa	702.6 ± 2.5
313.29 K, 100000 kPa	708.4 ± 2.5
323.18 K, 500 kPa	608.6 ± 2.1
323.18 K, 1000 kPa	609.3 ± 2.1
323.18 K, 3000 kPa	612.8 ± 2.1
323.18 K, 5000 kPa	616.1 ± 2.1
323.19 K, 10000 kPa	623.7 ± 2.1
323.19 K, 15000 kPa	630.6 ± 2.1
323.19 K, 20000 kPa	636.9 ± 2.1
323.19 K, 25000 kPa	642.7 ± 2.1
323.19 K, 30000 kPa	648.1 ± 2.2
323.19 K, 35000 kPa	653.1 ± 2.2
323.19 K, 40000 kPa	657.9 ± 2.2
323.19 K, 45000 kPa	662.4 ± 2.2
323.19 K, 50000 kPa	666.7 ± 2.3
323.19 K, 55000 kPa	670.8 ± 2.3
323.19 K, 60000 kPa	674.7 ± 2.3
323.19 K, 70000 kPa	682.2 ± 2.4
323.19 K, 80000 kPa	689.1 ± 2.4
323.19 K, 90000 kPa	695.4 ± 2.5
323.19 K, 100000 kPa	701.5 ± 2.5
333.04 K, 500 kPa	597.2 ± 2.1
333.04 K, 1000 kPa	598.1 ± 2.1
333.04 K, 3000 kPa	601.9 ± 2.1
333.04 K, 5000 kPa	605.6 ± 2.1
333.04 K, 10000 kPa	613.9 ± 2.1
333.05 K, 15000 kPa	621.4 ± 2.1
333.05 K, 20000 kPa	628.1 ± 2.1
333.05 K, 25000 kPa	634.3 ± 2.1
333.05 K, 30000 kPa	640 ± 2.2
333.05 K, 35000 kPa	645.3 ± 2.2
333.05 K, 40000 kPa	650.4 ± 2.2
333.05 K, 45000 kPa	655.1 ± 2.2
333.05 K, 50000 kPa	659.6 ± 2.3
333.05 K, 55000 kPa	663.9 ± 2.3
333.05 K, 60000 kPa	668 ± 2.3
333.05 K, 70000 kPa	675.8 ± 2.4
333.05 K, 100000 kPa	695.8 ± 2.5
333.06 K, 80000 kPa	683 ± 2.4
333.06 K, 90000 kPa	689.6 ± 2.5
342.94 K, 500 kPa	585.8 ± 2.1
342.94 K, 1000 kPa	586.8 ± 2.1
342.94 K, 90000 kPa	684 ± 2.5
342.95 K, 3000 kPa	591.2 ± 2.1
342.95 K, 5000 kPa	595.3 ± 2.1
342.95 K, 10000 kPa	604.4 ± 2.1
342.95 K, 70000 kPa	669.9 ± 2.4
342.95 K, 80000 kPa	677.2 ± 2.4
342.95 K, 100000 kPa	690.4 ± 2.6
342.96 K, 15000 kPa	612.5 ± 2.1
342.96 K, 20000 kPa	619.8 ± 2.1
342.96 K, 25000 kPa	626.3 ± 2.1
342.96 K, 30000 kPa	632.4 ± 2.2
342.96 K, 35000 kPa	638.1 ± 2.2
342.96 K, 40000 kPa	643.4 ± 2.2
342.96 K, 45000 kPa	648.4 ± 2.2
342.96 K, 50000 kPa	653 ± 2.3
342.96 K, 55000 kPa	657.5 ± 2.3
342.96 K, 60000 kPa	661.8 ± 2.3
352.82 K, 500 kPa	574.2 ± 2.1
352.82 K, 1000 kPa	575.6 ± 2.1
352.82 K, 3000 kPa	580.5 ± 2.1
352.82 K, 5000 kPa	585.1 ± 2.1
352.82 K, 10000 kPa	595.2 ± 2.1
352.83 K, 15000 kPa	603.9 ± 2.1
352.83 K, 20000 kPa	611.7 ± 2.1
352.83 K, 25000 kPa	618.7 ± 2.1
352.83 K, 30000 kPa	625.2 ± 2.2
352.83 K, 35000 kPa	631.2 ± 2.2
352.83 K, 40000 kPa	636.7 ± 2.2
352.83 K, 45000 kPa	641.9 ± 2.3
352.83 K, 50000 kPa	646.9 ± 2.3
352.83 K, 55000 kPa	651.5 ± 2.3
352.83 K, 70000 kPa	664.3 ± 2.4
352.83 K, 80000 kPa	671.9 ± 2.4
352.83 K, 90000 kPa	679 ± 2.5
352.83 K, 100000 kPa	685.6 ± 2.6
352.84 K, 60000 kPa	655.9 ± 2.3
362.67 K, 500 kPa	560.5 ± 2.1
362.67 K, 1000 kPa	561.8 ± 2.1
362.67 K, 3000 kPa	567.4 ± 2.1
362.67 K, 80000 kPa	664.9 ± 2.5
362.67 K, 100000 kPa	679 ± 2.6
362.68 K, 5000 kPa	572.6 ± 2.1
362.68 K, 10000 kPa	583.8 ± 2.1
362.68 K, 15000 kPa	593.3 ± 2.1
362.68 K, 20000 kPa	601.7 ± 2.1
362.68 K, 25000 kPa	609.2 ± 2.2
362.68 K, 30000 kPa	616.1 ± 2.2
362.68 K, 35000 kPa	622.4 ± 2.2
362.68 K, 40000 kPa	628.2 ± 2.2
362.68 K, 45000 kPa	633.7 ± 2.3
362.68 K, 50000 kPa	638.9 ± 2.3
362.68 K, 55000 kPa	643.7 ± 2.3
362.68 K, 60000 kPa	648.3 ± 2.3
362.68 K, 70000 kPa	657.1 ± 2.4
362.68 K, 90000 kPa	672.2 ± 2.5

Reference: the NIST ThermoML archive (doi:10.1021/acs.jced.8b00229)
